Drawing on PubChem BioAssay AID1555 (Sanford-Burnham Center for Chemical Genomics, 2009), this text covers percent remaining for one compound.

The test system of the data set is human liver microsomes, LC/MS/MS parent remaining, 60 min. The experiment in a line: human hepatic microsomal compound turnover – biochemical, ADME assay, late-stage follow-up (AID 1555). The settings on record: at 1 µM, stronger effect = lower value.

On to `C=CCn1c(SCC(=O)c2ccc(O)c(O)c2)nnc1-c1ccccc1OC`, for which the percent remaining was 47%. Moreover, under “measured here: remaining without NADPH control”, the percent remaining was determined as 100%.
